Source: paper PMC3269379, “The Host-Pathogen interaction of human cyclophilin A and HIV-1 Vpr requires specific N-terminal and novel C-terminal domains” (BMC Structural Biology, 2011)
Entries after “also recorded” stand apart in the source; their conditions may differ. Where a SMILES comes first, the peptide text is derived from it.

Legend:
CypA [1] = target: T1, CypA (Homo sapiens, UniProt P62937); test: SPR binding of Vpr and Vpr peptides to immobilized CypA; conditions: for binding to CypA in SPR sensorgrams (in words): peptides 0-8 μM over CM5 chip with 150 RU CypA (Figure 2)
T1 construct: made in house
Method: SPR [42-44] measurements were performed at 25°C on a Biacore T100 instrument (Biacore AB, Uppsala, Sweden) equipped with CM5 research-grade sensor chips. CypA was immobilized to 150, 180, 918 and 5003 RU, using standard amine-coupling chemistry. The reference flow cells were treated correspondingly except for CypA immobilization. The synthetic full length Vpr, as well as fragments and mutants thereof, were dissolved at four different concentrations in the running buffer (HBS-EP buffer pH 7.4; 10 mM HEPES, 150 mM NaCl, 3.4 mM EDTA and 0.005% surfacant). The samples were injected over the flow cells at a flow rate of 30 μl/min. Data were collected at 2.5 Hz during 60 s association and 180 s or 240 s dissociation phases, and were automatically corrected for bulk buffer effects and non-specific binding of Vpr peptides to the chip matrix. All SPR data was acquired from two individual series of experiments using four different analyte concentrations with a duplicate injection of one of the individual concentrations.
Affinity, association and dissociation rate constants were obtained from sensorgrams by the Biacore T100 evaluation software version 2.0.1 in accordance with the global curve fit model. Sensorgram data for the four different concentrations were fitted to several binding models including 1:1 (Langmuir) binding model (A+B ↔ AB), two-state reaction (conformational change) model (A+B ↔ AB ↔ AB*), heterogeneous ligand (HL) model (interaction one: A+B1 ↔ AB1; interaction two: A+B2 ↔ AB2) and bivalent analyte (BA) model (A+B ↔ AB; AB+B↔ABB). Kinetic constants were calculated for the best fitted model.

CypA [2] = target: T1, CypA; test: Isothermal titration calorimetry of Vpr^75-90 binding to CypA; conditions: ITC; mean ± S.E of two titrations; read-out: Ka (converted)
Method: ITC was performed in a VP-ITC titration calorimeter (MicroCal Inc.). […] The mean of the heat from the last 5 injections was subtracted from the raw data to correct for experimental heat dilution. The binding isotherms were fitted to a one site binding model using the Origin v7 software (OriginLab). Chi-square minimization was performed iteratively to obtain the best-fit parameters.

T1 sequence (P62937 whole entry): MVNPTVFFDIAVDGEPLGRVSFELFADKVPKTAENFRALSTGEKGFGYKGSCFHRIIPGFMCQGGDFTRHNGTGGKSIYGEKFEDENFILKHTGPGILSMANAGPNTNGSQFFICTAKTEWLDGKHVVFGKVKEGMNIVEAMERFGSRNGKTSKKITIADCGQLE

| Compound | binding to CypA in SPR sensorgrams (in words) (CypA [1]) | other results |
| --- | --- | --- |
| CC[C@H](C)[C@H](NC(=O)[C@H](CCCNC(=N)N)NC(=O)[C@H](Cc1ccccc1)NC(=O)[C@H](Cc1c[nH]cn1)NC(=O)[C@@H](NC(=O)[C@@H](N)Cc1ccccc1)[C@@H](C)CC)C(=O)NCC(=O)N[C@@H](CS)C(=O)N[C@@H](CCCNC(=N)N)C(=O)N[C@@H](Cc1c[nH]cn1)C(=O)O [Vpr^69-78] (H-FIHFRIGCRH-OH; N-terminus and C-terminus assumed) | interacted only weakly | – |
| CC[C@H](C)[C@H](NC(=O)[C@H](CCCNC(=N)N)NC(=O)[C@H](CO)NC(=O)[C@H](Cc1c[nH]cn1)NC(=O)[C@H](CCCNC(=N)N)NC(=O)[C@H](CS)NC(=O)CN)C(=O)NCC(=O)N[C@H](C(=O)N[C@H](C(=O)O)[C@@H](C)O)C(C)C [Vpr^75-84] (H-GCRHSRIGVT-OH; N-terminus and C-terminus assumed) | interacted only weakly; also recorded: fails to bind | – |
| CC[C@H](C)[C@H](NC(=O)CNC(=O)[C@@H](NC(=O)[C@H](C)NC(=O)[C@H](CO)NC(=O)[C@H](Cc1c[nH]cn1)NC(=O)[C@H](CCC(N)=O)NC(=O)[C@H](CS)NC(=O)CN)[C@@H](C)CC)C(=O)N[C@H](C(=O)N[C@@H](CCCNC(=N)N)C(=O)N[C@@H](CCC(N)=O)C(=O)N[C@@H](CCCNC(=N)N)C(=O)N[C@@H](CCCNC(=N)N)C(=O)N[C@@H](C)C(=O)N[C@@H](CCCNC(=N)N)C(=O)O)[C@@H](C)CC [Vpr^75-90 (R76Q, V83I, R80A, T84I)] (H-GCQHSAIGIIRQRRAR-OH) | – | Kd (CypA [1]): 2700 ± 1900 nM |
| CC[C@H](C)[C@H](NC(=O)CNC(=O)[C@@H](NC(=O)[C@H](CCCNC(=N)N)NC(=O)[C@H](CO)NC(=O)[C@H](Cc1c[nH]cn1)NC(=O)[C@H](CCC(N)=O)NC(=O)[C@H](CS)NC(=O)CN)[C@@H](C)CC)C(=O)N[C@H](C(=O)N[C@@H](CCCNC(=N)N)C(=O)N[C@@H](CCC(N)=O)C(=O)N[C@@H](CCCNC(=N)N)C(=O)N[C@@H](CCCNC(=N)N)C(=O)N[C@@H](C)C(=O)N[C@@H](CCCNC(=N)N)C(=O)O)[C@@H](C)CC [Vpr^75-90 (R76Q, V83I, T84I)] (H-GCQHSRIGIIRQRRAR-OH) | – | Kd (CypA [1]): 4700 ± 2600 nM |
| CC[C@H](C)[C@H](NC(=O)[C@H](CCCNC(=N)N)NC(=O)[C@H](CO)NC(=O)[C@H](Cc1c[nH]cn1)NC(=O)[C@H](CCCNC(=N)N)NC(=O)[C@H](CS)NC(=O)CN)C(=O)NCC(=O)N[C@H](C(=O)N[C@H](C(=O)N[C@@H](CCCNC(=N)N)C(=O)N[C@@H](CCC(N)=O)C(=O)N[C@@H](CCCNC(=N)N)C(=O)N[C@@H](CCCNC(=N)N)C(=O)N[C@@H](C)C(=O)N[C@@H](CCCNC(=N)N)C(=O)O)[C@@H](C)O)C(C)C [Vpr^75-90] | – | Kd (CypA [2]): 76.9 nM |
| CC[C@H](C)[C@H](N)C(=O)NCC(=O)N[C@H](C(=O)N[C@H](C(=O)N[C@@H](CCCNC(=N)N)C(=O)N[C@@H](CCC(N)=O)C(=O)N[C@@H](CCCNC(=N)N)C(=O)N[C@@H](CCCNC(=N)N)C(=O)N[C@@H](C)C(=O)N[C@@H](CCCNC(=N)N)C(=O)O)[C@@H](C)O)C(C)C [Vpr^81-90] (H-IGVTRQRRAR-OH; N-terminus and C-terminus assumed) | interacted only weakly | – |
| C[C@H](NC(=O)CNC(=O)[C@H](CC(N)=O)NC(=O)[C@H](CCCNC(=N)N)NC(=O)[C@H](C)NC(=O)[C@H](CCCNC(=N)N)NC(=O)[C@@H](N)CCCNC(=N)N)C(=O)N[C@@H](CO)C(=O)N[C@@H](CCCNC(=N)N)C(=O)N[C@@H](CO)C(=O)O [Vpr^87-96] (H-RRARNGASRS-OH; N-terminus and C-terminus assumed) | interacted only weakly | – |
| Vpr^30-40: N-terminal peptide containing the N-terminal binding region of Vpr to CypA (AVRHFPRIWLH) | – | binding to CypA in SPR sensorgrams, comparison (in words) (CypA [1]; analyte 1-8 μM, chip with 180 RU CypA (Figure 1B, C)): lower affinity |
